According to publication PMC5050400 (Current Neuropharmacology, 2016):
Changes are numbered by the printed parent chain. Several values for one entry are separate records, joined by “and”; a condition that tells them apart may be missing. Equal values may be shown once. Read-outs that look alike come from different tables or passages of the source.

Columns and labels:
[1] = molecular target: T1, α1β3(Y143W) GABAA receptor (Homo sapiens, UniProt P14867+P28472, Y168W); assay: Two-electrode voltage clamp activation of α1β3; assay type: cell-based; settings: for Po,max^est / nH / d: α1β3(Y143W); for d: KO/KC, MWC fit
T1 sequence (P28472 26-473 Y168W): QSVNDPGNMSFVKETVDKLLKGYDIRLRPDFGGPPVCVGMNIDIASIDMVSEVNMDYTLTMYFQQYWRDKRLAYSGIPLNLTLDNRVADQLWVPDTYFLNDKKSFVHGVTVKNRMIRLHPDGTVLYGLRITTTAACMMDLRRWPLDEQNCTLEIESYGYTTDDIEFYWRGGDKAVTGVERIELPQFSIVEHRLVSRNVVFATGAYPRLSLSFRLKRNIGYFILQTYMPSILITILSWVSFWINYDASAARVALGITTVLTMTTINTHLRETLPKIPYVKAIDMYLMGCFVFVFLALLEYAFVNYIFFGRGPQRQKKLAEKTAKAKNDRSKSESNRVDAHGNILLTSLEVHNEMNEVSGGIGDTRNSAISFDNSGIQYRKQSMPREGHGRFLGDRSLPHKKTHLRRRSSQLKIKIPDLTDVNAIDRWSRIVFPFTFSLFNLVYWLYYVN
T1 sequence (P14867 28-456): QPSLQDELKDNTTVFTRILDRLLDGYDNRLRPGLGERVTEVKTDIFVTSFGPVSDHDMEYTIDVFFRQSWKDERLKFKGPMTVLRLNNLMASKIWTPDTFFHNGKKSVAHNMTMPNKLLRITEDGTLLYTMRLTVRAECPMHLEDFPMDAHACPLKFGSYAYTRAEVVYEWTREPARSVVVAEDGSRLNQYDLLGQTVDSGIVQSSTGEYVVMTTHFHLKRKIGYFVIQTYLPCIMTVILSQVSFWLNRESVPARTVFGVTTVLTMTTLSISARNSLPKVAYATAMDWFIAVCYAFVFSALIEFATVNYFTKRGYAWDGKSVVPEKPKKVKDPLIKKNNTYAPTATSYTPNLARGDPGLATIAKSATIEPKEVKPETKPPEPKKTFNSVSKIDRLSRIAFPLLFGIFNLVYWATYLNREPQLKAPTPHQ

[2] = molecular target: T2, α1β3(M286W) GABAA receptor (Homo sapiens, UniProt P14867+P28472, M311W); assay: Two-electrode voltage clamp activation of α1β3; assay type: cell-based; settings: for Po,max^est / nH / d: α1β3(M286W); for d: KO/KC, MWC fit
T2 sequence (P28472 26-473 M311W): T1 sequence (P28472 26-473 Y168W) with W143Y, M286W
T2 sequence (P14867 28-456): T1 sequence (P14867 28-456)

[3] = molecular target: T3, α1β3 GABAA receptor (Homo sapiens, UniProt P14867+P28472); assay type: cell-based; settings: for d / Po,max^est / nH: wild-type α1β3; for d: KO/KC, gating efficacy, MWC fit, n = 5 for propofol, 2 for GABA; for Po,max^est: estimated maximal open probability at saturating agonist; for nH: slope of concentration-response curve
T3 sequence (P28472 26-473): T1 sequence (P28472 26-473 Y168W) with W143Y
T3 sequence (P14867 28-456): T1 sequence (P14867 28-456)

[4] = molecular target: T4, α1β3(M286W+Y143W) GABAA receptor (Homo sapiens, UniProt P14867+P28472, M311W/Y168W); assay: Two-electrode voltage clamp activation of α1β3; assay type: cell-based; settings: for Po,max^est / nH / d: α1β3(M286W+Y143W); for d: KO/KC, MWC fit
T4 sequence (P28472 26-473 Y168W/M311W): T1 sequence (P28472 26-473 Y168W) with M286W
T4 sequence (P14867 28-456): T1 sequence (P14867 28-456)

[5] = molecular target: T5, α1β3(F221W) GABAA receptor (Homo sapiens, UniProt P14867+P28472, F246W); assay: Two-electrode voltage clamp activation of α1β3; assay type: cell-based; settings: for Po,max^est / nH / d: α1β3(F221W); for d: KO/KC, MWC fit
T5 sequence (P28472 26-473 F246W): T1 sequence (P28472 26-473 Y168W) with W143Y, F221W
T5 sequence (P14867 28-456): T1 sequence (P14867 28-456)

[6] = molecular target: T6, α1β3(M286W+Q224W) GABAA receptor (Homo sapiens, UniProt P14867+P28472, M311W/Q249W); assay: cell-based
T6 sequence (P28472 26-473 Q249W/M311W): T1 sequence (P28472 26-473 Y168W) with W143Y, Q224W, M286W
T6 sequence (P14867 28-456): T1 sequence (P14867 28-456)

[7] = molecular target: T7, α1β3(Q224W) GABAA receptor (Homo sapiens, UniProt P14867+P28472, Q249W); assay: Two-electrode voltage clamp activation of α1β3; assay type: cell-based; settings: for Po,max^est / nH / d: α1β3(Q224W); for d: KO/KC, MWC fit
T7 sequence (P28472 26-473 Q249W): T1 sequence (P28472 26-473 Y168W) with W143Y, Q224W
T7 sequence (P14867 28-456): T1 sequence (P14867 28-456)

[8] = molecular target: T8, α1β3(M286W+F221W) GABAA receptor (Homo sapiens, UniProt P14867+P28472, F246W/M311W); assay: Two-electrode voltage clamp activation of α1β3; assay type: cell-based; settings: for Po,max^est / nH / d: α1β3(M286W+F221W); for d: KO/KC, MWC fit
T8 sequence (P28472 26-473 F246W/M311W): T1 sequence (P28472 26-473 Y168W) with W143Y, F221W, M286W
T8 sequence (P14867 28-456): T1 sequence (P14867 28-456)

[9] = tested on: α1β2γ2L GABAA receptors; settings: compared with propofol; cited from earlier work
[10] = tested on: β3(Y143W) receptor; settings: β3(Y143W) homomeric receptor compared with wild-type; cited from earlier work

| Compound | Po,max^est [1] | nH [1] | d [1] | Po,max^est [2] | nH [2] | d [2] | d [3] | Po,max^est [3] | nH [3] | Po,max^est [4] | nH [4] | d [4] | Po,max^est [5] | nH [5] | d [5] | Po,max^est [7] | nH [7] | d [7] | Po,max^est [8] | nH [8] | other results |
| --- | --- | --- | --- | --- | --- | --- | --- | --- | --- | --- | --- | --- | --- | --- | --- | --- | --- | --- | --- | --- | --- |
| NCCCC(=O)O [GABA, γ-aminobutyric acid] | 1 | 1.7±0.1 | 0.02±0.001 | 0.94±0.01 | 1.8±0.2 | 0.005±0.002 | 0.02±0.001 | 0.65±0.04 | 1.5±0.1 | 0.96±0.09 | 0.8±0.1 | 0.08±0.05 | 1 | 1.5±0.1 | 0.03±0.02 | 0.24±0.03 | 1.0±0.1 | 0.06±0.01 | 1 | 1.1±0.1 | Po,max^est ([6]; α1β3(M286W+Q224W)): 0.87±0.02; nH ([6]; α1β3(M286W+Q224W)): 1.1±0.1; d ([6]; α1β3(M286W+Q224W), KO/KC, MWC fit): 0.04±0.004; d [8]: 0.07±0.05 |
| CC(C)c1ccc(C2(C(F)(F)F)N=N2)cc1O [meta-azipropofol, 2-isopropyl-5-[3-(trifluoromethyl)-3H-diazirin-3-yl]phenol] | – | – | – | – | – | – | – | – | – | – | – | – | – | – | – | – | – | – | – | – | degree of potentiation [9]: somewhat smaller degree of potentiation |
| Cc1cccc(C)c1O [2,6-dimethylphenol] | – | – | – | – | – | – | – | – | – | – | – | – | – | – | – | – | – | – | – | – | activation of the mutant receptor [10]: unchanged |
| CC(C)c1cccc(C(C)C)c1O [Propofol, 2,6-diisopropylphenol] | 1 | 1.6±0.1 | 0.27±0.03 | 0.33±0.04 | 2.8±0.3 | 0.27±0.01 | 0.24±0.01 | 0.50±0.02 | 1.7±0.3 | 0.64±0.02 | 1.5±0.2 | 0.93±0.01 | 1 | 1.9±0.3 | 0.23±0.01 | 1 | 2.9±0.6 | 0.04±0.05 | 0.60±0.04 | 1.1±0.1 | EC50 [1]: 12.8 ± 2.9 µM; Kd [1]: 23 ± 6 µM; EC50 [2]: 14 ± 0.7 µM; Kd [2]: 6 ± 1.4 µM; EC50 ([3]; EC50, wild-type α1β3, direct activation, mean ± S.E.M., at least 4 cells): 13 µM and 12.5 µM; EC50 [4]: 1.6 ± 0.2 µM; Kd [4]: 1.4 ± 0.3 µM; EC50 [5]: 5 ± 0.5 µM; Kd [5]: 13.1 ± 1.5 µM; EC50 [6]: 69 ± 9 µM; Kd [6]: 61 ± 14 µM; Po,max^est [6]: 0.11±0.01; d [6]: 0.58±0.01; nH [6]: 1.9±0.1; EC50 [7]: 50 ± 2 µM; Kd [7]: 336 ± 435 µM; EC50 [8]: 6.6 ± 0.8 µM; Kd [8]: 5.7 ± 1.6 µM; d [8]: 0.84±0.01 |
| CC(C)c1ccccc1O [2-isopropylphenol] | – | – | – | – | – | – | – | – | – | – | – | – | – | – | – | – | – | – | – | – | activation of the mutant receptor [10]: unchanged |
